Test results as given in patent publication US7803930B2, “Antisense modulation of apolipoprotein B-expression” (Isis Pharmaceuticals, Inc., priority 2002, dated 2010).
In the oligonucleotide strings, read from the 5' end, every base follows the letter of its sugar. An asterisk marks phosphorothioate; unmarked linkages are phosphodiester. Other units and linkages are bracketed, terminal groups are in braces. A string of capitals states the bases alone. e = 2'-O-(2-methoxyethyl) (MOE); [5mC] = 5-methylcytosine; d = 2'-deoxy (DNA)

Key:
[1] = tested on: rabbit apolipoprotein B mRNA; test: Inhibition of rabbit apolipoprotein B mRNA levels in primary rabbit hepatocytes, real-time PCR; format: cell-based; set-up: % INHIB of rabbit apolipoprotein B mRNA levels: concentration or dose not given beside the values; conditions: for Percent Inhibition of rabbit apolipoprotein B mRNA levels: averages from two experiments
Source text: Primary rabbit hepatocytes were purchased from Invitro Technologies (Gaithersburg, Md.) and maintained in Dulbecco's modified Eagle's medium (Gibco). When purchased, the cells had been seeded into 96-well plates for use in RT-PCR analysis and were confluent.
In accordance with the present invention, a series of oligonucleotides was designed to target different regions of rabbit apolipoprotein B, using published sequences (GenBank accession number X07480.1, incorporated herein as SEQ ID NO: 808, GenBank accession number M17780.1, incorporated herein as SEQ ID NO: 809, and a sequence was derived using previously described primers (Tanaka, Journ. Biol. Chem., 1993,268, 12713-12718) representing an mRNA of the rabbit apolipoprotein B, incorporated herein as SEQ ID NO: 810). “Target site” indicates the first (5′-most) nucleotide number on the particular target sequence to which the oligonucleotide binds. All compounds in Table 21 are chimeric oligonucleotides (“gapmers”) 20 nucleotides in length, composed of a central “gap” region consisting of ten 2′-deoxynucleotides, which is flanked on both sides (5′ and 3′ directions) by five-nucleotide “wings”. The wings are composed of 2′-methoxyethyl (2′-MOE)nucleotides. The internucleoside (backbone) linkages are phosphorothioate (P═S) throughout the oligonucleotide. All cytidine residues are 5-methylcytidines. The compounds were analyzed for their effect on rabbit apolipoprotein B mRNA levels in primary rabbit hepatocytes by quantitative real-time PCR as described in other examples herein. Primary rabbit hepatocytes were treated with 150 nM of the compounds in Table 21. For rabbit apolipoprotein B the PCR primers were: • forward primer: AAGCACCCCCAATGTCACC (SEQ ID NO: 811) • reverse primer: […] (SEQ ID NO: 812) and the PCR probe was: FAM-[…]-TAMRA (SEQ ID NO: 813) where FAM (PE-Applied Biosystems, Foster City, Calif.) is the fluorescent reporter dye) and TAMRA (PE-Applied Biosystems, Foster City, Calif.) is the quencher dye. Data are averages from two experiments. If present, “N.D.” indicates “no data”.
In accordance with the present invention, a subset of the antisense oligonuclotides in Example 42 was further investigated in dose-response studies. Treatment doses were 10, 50, 150 and 300 nM. ISIS 233160 (SEQ ID NO: 824), ISIS 233166 (SEQ ID NO: 830), ISIS 233172 (SEQ ID NO: 835), ISIS 233175 (SEQ ID NO: 838), and ISIS 233183 (SEQ ID NO: 846) were analyzed for their effect on rabbit apolipoprotein B mRNA levels in primary rabbit hepatocytes by quantitative real-time PCR as described in other examples herein.

[2] = tested on: human apolipoprotein B mRNA; test: Inhibition of human apolipoprotein B mRNA levels in HepG2 cells, quantitative real-time PCR; format: cell-based; conditions: averages from two experiments
Procedure, shortened: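 Apolipoprotein B transcript was quantified by one-step TaqMan RT-PCR, normalized to GAPDH or RiboGreen RNA, and expressed as percent inhibition against an untreated-sample standard curve. HepG2 cells were harvested 16-24 h after oligonucleotide exposure, which was delivered with 3.75 μg/mL Lipofectin over 4-7 h at 80% confluency.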

## 233188 (antisense eT*eT*eG*eT*eA*d[5mC]*dT*dG*dT*dA*dG*dT*dG*d[5mC]*dA*eT*e[5mC]*eA*eA*eT) [compound 233188]
[1]
  % INHIB of rabbit apolipoprotein B mRNA levels: 74%

## 233181 (antisense eG*e[5mC]*eA*e[5mC]*e[5mC]*d[5mC]*dA*dG*dA*dA*dT*d[5mC]*dA*dT*dG*eG*e[5mC]*e[5mC]*eT*eG) [compound 233181]
[1]
  % INHIB of rabbit apolipoprotein B mRNA levels: 0%

## 233166 (antisense eG*eG*eA*eT*e[5mC]*dA*d[5mC]*dA*dT*dG*dA*d[5mC]*dT*dG*dA*eA*eT*eG*e[5mC]*eT) [compound 233166]
[1]
  % INHIB of rabbit apolipoprotein B mRNA levels: 82%
[1]; 10 nM
  Percent Inhibition of rabbit apolipoprotein B mRNA levels: 66%
[1]; 50 nM
  Percent Inhibition of rabbit apolipoprotein B mRNA levels: 81%
[1]; 150 nM
  Percent Inhibition of rabbit apolipoprotein B mRNA levels: 79%
[1]; 300 nM
  Percent Inhibition of rabbit apolipoprotein B mRNA levels: 73%

## 233170 (antisense eT*eT*eG*eA*eT*d[5mC]*dT*dA*dT*dA*dA*dT*dA*d[5mC]*dT*eA*eG*e[5mC]*eT*eA) [compound 233170]
[1]
  % INHIB of rabbit apolipoprotein B mRNA levels: 23%

## 233153 (antisense eG*e[5mC]*e[5mC]*eT*eG*dA*dT*dA*d[5mC]*dT*d[5mC]*dA*dG*d[5mC]*dA*e[5mC]*eG*eT*eA*eG) [compound 233153]
[1]
  % INHIB of rabbit apolipoprotein B mRNA levels: 0%

## 233155 (antisense eA*e[5mC]*e[5mC]*eT*e[5mC]*dA*dG*dT*dG*dA*d[5mC]*dT*dT*dG*dT*eA*eA*eT*e[5mC]*eA) [compound 233155]
[1]
  % INHIB of rabbit apolipoprotein B mRNA levels: 47%

## 233176 (antisense eG*eA*eA*eA*eT*d[5mC]*dT*dG*dG*dA*dA*dG*dA*dG*dA*eG*eA*e[5mC]*e[5mC]*eT) [compound 233176]
[1]
  % INHIB of rabbit apolipoprotein B mRNA levels: 62%

## 233156 (antisense e[5mC]*eA*e[5mC]*eT*eG*dG*dA*dA*dA*d[5mC]*dT*dT*dG*dT*d[5mC]*eT*e[5mC]*eT*e[5mC]*e[5mC]) [compound 233156]
[1]
  % INHIB of rabbit apolipoprotein B mRNA levels: 23%

## 233183 (antisense e[5mC]*eA*eG*eT*eG*dT*dA*dA*dT*dG*dA*dT*d[5mC]*dG*dT*eT*eG*eA*eT*eT) [compound 233183]
[1]
  % INHIB of rabbit apolipoprotein B mRNA levels: 88%
[1]; 10 nM
  Percent Inhibition of rabbit apolipoprotein B mRNA levels: 30%
[1]; 50 nM
  Percent Inhibition of rabbit apolipoprotein B mRNA levels: 71%
[1]; 150 nM
  Percent Inhibition of rabbit apolipoprotein B mRNA levels: 81%
[1]; 300 nM
  Percent Inhibition of rabbit apolipoprotein B mRNA levels: 80%

## 233180 (antisense eA*eA*eG*eA*eT*dG*d[5mC]*dA*dG*dT*dA*d[5mC]*dT*dA*d[5mC]*eT*eT*e[5mC]*e[5mC]*eA) [compound 233180]
[1]
  % INHIB of rabbit apolipoprotein B mRNA levels: 13%

## 233169 (antisense eG*e[5mC]*eT*e[5mC]*eA*dT*dT*d[5mC]*dT*d[5mC]*d[5mC]*dA*dG*d[5mC]*dA*eT*e[5mC]*eA*eG*eG) [compound 233169]
[1]
  % INHIB of rabbit apolipoprotein B mRNA levels: 14%

## 233186 (antisense eG*eA*eA*eG*eA*dG*dG*dA*dA*dG*dA*dA*dA*dG*dG*eA*eT*eA*eT*eG) [compound 233186]
[1]
  % INHIB of rabbit apolipoprotein B mRNA levels: 60%

## 233164 (antisense e[5mC]*eA*eT*eA*eT*dG*dT*d[5mC]*dT*dG*dA*dA*dG*dT*dT*eG*eA*eG*eA*e[5mC]) [compound 233164]
[1]
  % INHIB of rabbit apolipoprotein B mRNA levels: 8%

## 233165 (antisense eG*eT*eA*eG*eA*dT*dA*d[5mC]*dT*d[5mC]*d[5mC]*dA*dT*dT*dT*eT*eG*eG*e[5mC]*e[5mC]) [compound 233165]
[1]
  % INHIB of rabbit apolipoprotein B mRNA levels: 0%

## 233178 (antisense eG*eA*eT*eA*eA*d[5mC]*dT*d[5mC]*dT*dG*dT*dG*dA*dG*dG*eG*eT*eA*eG*e[5mC]) [compound 233178]
[1]
  % INHIB of rabbit apolipoprotein B mRNA levels: 0%

## 233150 (antisense eG*e[5mC]*eG*eT*eT*dG*dT*d[5mC]*dT*d[5mC]*d[5mC]*dG*dA*dT*dG*eT*eT*e[5mC]*eT*eG) [compound 233150]
[1]
  % INHIB of rabbit apolipoprotein B mRNA levels: 20%

## 233187 (antisense eT*eG*eA*e[5mC]*eA*dG*dA*dT*dG*dA*dA*dG*dA*dG*dG*eA*eA*eG*eA*eA) [compound 233187]
[1]
  % INHIB of rabbit apolipoprotein B mRNA levels: 66%

## 233189 (antisense eG*e[5mC]*e[5mC]*eT*e[5mC]*dA*dA*dT*d[5mC]*dT*dG*dT*dT*dG*dT*eT*eT*e[5mC]*eA*eG) [compound 233189]
[1]
  % INHIB of rabbit apolipoprotein B mRNA levels: 46%

## 233163 (antisense eA*eT*eT*eG*eT*dG*dA*dG*dT*dG*dG*dA*dG*dA*dT*eA*e[5mC]*eT*eT*e[5mC]) [compound 233163]
[1]
  % INHIB of rabbit apolipoprotein B mRNA levels: 80%

## 233152 (antisense eT*e[5mC]*eA*eG*e[5mC]*dA*d[5mC]*dG*dT*dA*dG*d[5mC]*dA*dA*dT*eG*e[5mC]*eA*eT*eT) [compound 233152]
[1]
  % INHIB of rabbit apolipoprotein B mRNA levels: 0%

## 233154 (antisense e[5mC]*eA*eA*eT*eT*dG*dA*dA*dT*dG*dT*dA*d[5mC]*dT*d[5mC]*eA*eG*eA*eT*eA) [compound 233154]
[1]
  % INHIB of rabbit apolipoprotein B mRNA levels: 18%

## 233179 (antisense eA*eT*eG*eT*eT*dG*d[5mC]*d[5mC]*d[5mC]*dA*dT*dG*dG*d[5mC]*dT*eG*eG*eA*eA*eT) [compound 233179]
[1]
  % INHIB of rabbit apolipoprotein B mRNA levels: 65%

## 233157 (antisense eA*eG*eT*eA*eG*dT*dT*dA*dG*dT*dT*dT*d[5mC]*dT*d[5mC]*e[5mC]*eT*eT*eG*eG) [compound 233157]
[1]
  % INHIB of rabbit apolipoprotein B mRNA levels: 0%

## 233151 (antisense eT*eA*eA*eT*e[5mC]*dA*dT*dT*dA*dA*d[5mC]*dT*dT*dG*d[5mC]*eT*eG*eT*eG*eG) [compound 233151]
[1]
  % INHIB of rabbit apolipoprotein B mRNA levels: 20%

## 233177 (antisense eG*eT*eA*eG*e[5mC]*dT*dT*dT*d[5mC]*d[5mC]*d[5mC]*dA*dT*d[5mC]*dT*eA*eG*eG*e[5mC]*eT) [compound 233177]
[1]
  % INHIB of rabbit apolipoprotein B mRNA levels: 0%

## 233190 (antisense eA*e[5mC]*eT*eT*eG*dA*dG*d[5mC]*dG*dT*dG*d[5mC]*d[5mC]*d[5mC]*dT*e[5mC]*eT*eA*eA*eT) [compound 233190]
[1]
  % INHIB of rabbit apolipoprotein B mRNA levels: 69%

## 233159 (antisense eT*e[5mC]*eA*eG*eT*dG*d[5mC]*d[5mC]*d[5mC]*dA*dA*dG*dA*dT*dG*eT*e[5mC]*eA*eG*e[5mC]) [compound 233159]
[1]
  % INHIB of rabbit apolipoprotein B mRNA levels: 0%

## 233191 (antisense eG*eA*eA*eA*eT*dG*dG*dA*dA*dT*dT*dG*dT*dA*dG*eT*eT*e[5mC]*eT*e[5mC]) [compound 233191]
[1]
  % INHIB of rabbit apolipoprotein B mRNA levels: 31%

## 233185 (antisense e[5mC]*eA*eA*e[5mC]*eA*dA*dT*dG*dT*d[5mC]*dT*dG*dA*dT*dT*eG*eG*eT*eT*eA) [compound 233185]
[1]
  % INHIB of rabbit apolipoprotein B mRNA levels: 73%

## 233162 (antisense eG*eT*eT*eG*e[5mC]*d[5mC]*dT*dT*dG*dT*dG*dA*dG*d[5mC]*dA*eG*e[5mC]*eA*eG*eT) [compound 233162]
[1]
  % INHIB of rabbit apolipoprotein B mRNA levels: 0%

## 271023 (antisense e[5mC]*e[5mC]*e[5mC]*eT*eT*dG*d[5mC]*dT*d[5mC]*dT*dA*d[5mC]*d[5mC]*dA*dA*eT*eG*e[5mC]*eT*eT) [compound 271023]
[2]; HepG2 cells treated with 150 nM of compound, quantitative real-time PCR
  % INHIB (inhibition of human apolipoprotein B mRNA levels): 44%

## 301177 (antisense eT*eG*eA*eA*eG*dA*d[5mC]*dA*dG*dG*dG*dA*dG*d[5mC]*d[5mC]*eA*e[5mC]*e[5mC]*eT*eA) [compound 301177]
[2]; HepG2 cells, human apolipoprotein B mRNA, oligonucleotides targeting genomic sequence SEQ ID NO 334
  % INHIB: 40%
